The results in this text go back to paper PMC9495854, “Novel Phenothiazine/Donepezil-like Hybrids Endowed with Antioxidant Activity for a Multi-Target Approach to the Therapy of Alzheimer’s Disease” (Antioxidants, 2022).

Data set [1] has as its target T1, hAChE (Homo sapiens, UniProt P22303).
T1 construct: purchased
In words: biochemical. The data set is classed as biochemical. The settings on record: mean ± SEM; for hAChE I% at 10 µM: inhibition at 10 µM. On the procedure:
(§1) The experiments were carried out using a properly modified version of Ellman’s spectrophotometric assay, adapted to a 96-well plate procedure. All reagents, including enzymes, were purchased from common suppliers. Incubation of the proper enzyme with the single compound at different concentrations was performed in clear flat-bottomed, 96-well plates (Greiner Bio-One GmbH, Frickenhausen, Germany) and in duplicate. […] Fluorescence measures were carried out using Tecan Infinite M1000 Pro multiplate reader (Tecan, Cernusco S.N., Italy). IC50 values and inhibition values were calculated as the mean of three independent experiments and are expressed as mean ± SEM [13].

Data set [2] is described as follows: MTT cell viability assay, SH-SY5Y. It is filed as cell-based. The settings on record: human, SH-SY5Y cells, SHSY-5Y; for IC50 at 1 h: 1 h exposure; for IC50 at 24 h: 24 h exposure, read-out: MTT cytotoxicity IC50 ± SEM SHSY-5Y 24 h. The protocol:
(§2) Human hepatocellular liver carcinoma (HepG2) cell line and human neuroblastoma cell line, SH-SY5Y, were purchased from the American Type Culture Collection (ATCC, Manassas, VA, USA) and maintained at 37 °C in a humidified atmosphere (95% air and 5% carbon dioxide), and they were periodically screened for contamination. HepG2 cells were cultured in Eagle’s Minimum Essential Medium (MEM, Euroclone S.p.A., Pero, MI, Italy), supplemented with 10% Fetal Bovine Serum (FBS, Euroclone S.p.A., Pero, MI, Italy), 1% L-glutamine (Euroclone S.p.A., Pero, MI, Italy), 100 U/mL penicillin/streptomycin (Euroclone S.p.A., Pero, MI, Italy), 1% Non-Essential Amino Acids (NEAA, Euroclone S.p.A., Pero, MI, Italy). SH-SY5Y cells were grown in a 1:1 mixture of Dulbecco’s modified Eagle’s medium (DMEM)—high glucose (Euroclone S.p.A., Pero, MI, Italy) and Ham’s F12 Medium (Euroclone S.p.A., Pero, MI, Italy) supplemented with 10% FBS, 1% L-glutamine and 100 U/mL penicillin/streptomycin. For cell assays, cells were trypsinized using Trypsin-EDTA 1X in PBS (Euroclone S.p.A., Pero, MI, Italy).
(§3) HepG2 and SH-SY5Y cell viability was assessed as previously reported by using a conventional 3-(4,5-dimethylthiazol-2-yl)-2,5-diphenyltetrazolium bromide (MTT) assay. In brief, viable cells were seeded and grown for 24 h into a sterile 96-well cell culture cluster (Corning, Sigma-Aldrich, St. Louis, MO, USA) in a complete medium and maintained at 37 °C in a humidified atmosphere with 5% CO2. The cells were then added with different concentrations of each compound for a period of 1 h or 24 h. At the end, the culture medium was replaced by a solution of 0.5 mg/mL MTT (Sigma-Aldrich, St. Louis, MO, USA) in PBS. After 2 h of incubation at 37 °C in 5% CO2, the supernatant was carefully removed from each well, and the formazan crystals were dissolved in DMSO. The absorbance values were measured at 570 nm using Tecan Infinite M1000 Pro (Tecan, Cernusco S.N., Italy) and DMSO medium as blank solution. The results were reported as % cell viability = [optical density (OD) of tested compound/medium OD of control cells] × 100. The results are expressed as mean ± SEM of at least three independent measurements in triplicate.
(Tetrazolium dyes change colour on reduction, which living cells bring about.)

The nature of data set [3]: MTT cell viability assay, HepG2. The data set is classed as cell-based. The settings on record: human, HepG2 cells; for IC50 at 1 h: HepG2, 1 h exposure; for IC50 at 24 h: HepG2, 24 h exposure, read-out: MTT cytotoxicity IC50 ± SEM HepG2 24 h. On the procedure: as §2, §3
In data set [4] the test system is HepG2 cells. As to the kind of experiment: DCFH-DA cell-based antioxidant assay (H2O2-induced oxidation), HepG2. The settings on record: Homo sapiens, 1 h compound, 100 μM H2O2, read-out: DCFDH-DA IC50 ± SEM HepG2. On the procedure: as §2, with “HepG2” for “Human hepatocellular liver carcinoma (HepG2) cell line and human neuroblastoma cell line, SH-SY5Y, were purchased from the American Type Culture Collection (ATCC, Manassas, VA, USA) and maintained at 37 °C in a humidified atmosphere (95% air and 5% carbon dioxide), and they were periodically screened for contamination. HepG2”
According to a slightly modified procedure already reported in the literature, the generation of ROS was determined using an oxidation-sensitive fluorescent probe, 2′,7′-dichlorodihydrofluorescein diacetate (DCFH-DA, D6665; Sigma-Aldrich, St. Louis, MO, USA). Briefly, viable cells were seeded in a black 96-well cell culture plate (Costar, Sigma-Aldrich, St. Louis, MO, USA) and after 24 h were incubated with different concentrations (0.1–100 µM) of each compound for 1 h at 37 °C in 5% CO2. […] After washing using PBS, 100 μM H2O2 in medium without serum was added to each well and the cells were incubated for an additional 30 min. The formation of fluorescent dichlorofluorescein (DCF) due to oxidation of DCFH in the presence of ROS, was read at 530 nm using a microplate reader Tecan Infinite M1000 Pro (Tecan, Cernusco S.N., Italy) and DMSO medium was used for control cells. The results are expressed as mean ± SEM of at least three independent measurements in triplicate.

Data set [5] addresses T2, hBChE (Homo sapiens, UniProt P06276).
T2 construct: purchased
In words: biochemical. The note with it: mean ± SEM. The protocol: as §1

The target of data set [6] is T3, Aβ1-40 aggregation (Homo sapiens, UniProt P05067).
T3 construct: purchased EZBiolab
As to the kind of experiment: Inhibition of Aβ40 aggregation, ThT fluorescence. The note with it: inhibitor 10 µM, Aβ40 30 µM, PBS pH 7.4, 2% HFIP, 2 h 25 °C, mean ± SEM; for inhibition at 10 µM: read-out: Aβ1-40 Aggregation (I% at 10 µM). The data set is classed as biochemical. The protocol:
ThT fluorescence in the presence of Aβ was measured for each compound according a previously described procedure. The samples were co-incubated and mixed in 96-well black, non-binding microplates (Greiner Bio-One GmbH, Frickenhausen, Germany), incubating Aβ40 (EZBiolab, Carmel, IN, USA) at a final concentration of 30 µM with each inhibitors at a final concentration of 10 µM in PBS (pH 7.4) containing 2% 1,1,1,3,3,3-hexafluoro-2-propanol (HFIP). After 2 h at 25 °C, a 25 µM ThT solution was added and fluorescence was determined using the multi-plate reader Tecan Infinite M1000 Pro (Tecan, Cernusco S.N., Italy). The results are reported as mean of three independent experiments ± SEM [13].

Data set [7] concerns SH-SY5Y cells. In words: MTT cell viability assay, SH-SY5Y. The data set is classed as cell-based. The note with it: 24 h exposure. On the procedure: as §2, §3

Each structure is given as a SMILES string. Marks after values point to notes of the source that are not given here.

The term IC50 denotes the concentration needed to halve the response being measured.

T1 sequence (P22303 32-614): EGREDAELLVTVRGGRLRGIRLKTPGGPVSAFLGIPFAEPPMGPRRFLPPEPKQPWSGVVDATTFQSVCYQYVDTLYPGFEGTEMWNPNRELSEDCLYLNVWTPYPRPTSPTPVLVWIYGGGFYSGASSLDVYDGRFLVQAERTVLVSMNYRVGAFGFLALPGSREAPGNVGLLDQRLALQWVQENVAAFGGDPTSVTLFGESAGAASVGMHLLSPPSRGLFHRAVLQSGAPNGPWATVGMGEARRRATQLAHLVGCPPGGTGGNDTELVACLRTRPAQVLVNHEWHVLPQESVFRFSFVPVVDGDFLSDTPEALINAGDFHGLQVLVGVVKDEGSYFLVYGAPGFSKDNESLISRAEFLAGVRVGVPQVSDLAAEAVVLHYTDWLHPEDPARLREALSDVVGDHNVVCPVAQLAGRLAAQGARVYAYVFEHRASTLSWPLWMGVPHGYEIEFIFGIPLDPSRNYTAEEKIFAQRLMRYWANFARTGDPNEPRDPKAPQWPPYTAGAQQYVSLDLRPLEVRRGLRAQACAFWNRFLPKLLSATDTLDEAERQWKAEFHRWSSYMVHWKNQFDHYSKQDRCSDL
T2 sequence (P06276 29-602): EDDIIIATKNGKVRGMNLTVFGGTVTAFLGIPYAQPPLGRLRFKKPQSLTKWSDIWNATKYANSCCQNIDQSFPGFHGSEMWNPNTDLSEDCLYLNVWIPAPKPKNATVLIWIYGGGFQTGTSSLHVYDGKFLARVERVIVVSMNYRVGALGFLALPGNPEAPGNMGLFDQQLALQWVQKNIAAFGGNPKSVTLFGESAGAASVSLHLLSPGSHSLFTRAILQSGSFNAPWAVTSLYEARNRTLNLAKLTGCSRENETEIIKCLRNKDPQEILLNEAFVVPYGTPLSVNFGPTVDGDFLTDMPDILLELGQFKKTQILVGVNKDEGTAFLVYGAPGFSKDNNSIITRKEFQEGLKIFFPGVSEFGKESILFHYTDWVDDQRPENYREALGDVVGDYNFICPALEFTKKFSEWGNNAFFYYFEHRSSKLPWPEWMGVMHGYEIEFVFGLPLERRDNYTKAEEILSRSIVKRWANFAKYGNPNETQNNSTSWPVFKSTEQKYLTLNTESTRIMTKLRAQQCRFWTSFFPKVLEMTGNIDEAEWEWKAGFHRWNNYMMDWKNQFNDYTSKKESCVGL
T3 sequence (P05067 672-711 limits assumed): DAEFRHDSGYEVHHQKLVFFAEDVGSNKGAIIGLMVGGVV

For the compound `O=C(NCC1CCN(Cc2ccccc2)CC1)c1ccc2c(c1)Nc1ccccc1S2` [Compound 11a, N-((1-Benzylpiperidin-4-yl)methyl)-10H-phenothiazine-2-carboxamide], the values for the half-inhibitory concentration (IC50) in data set [1], in data set [4] and in data set [5] were 0.597 ± 0.064 µM, 8.31 ± 1.4 µM and 2.16 ± 0.27 µM, respectively. The half-inhibitory concentration (IC50) at 1 h in data set [2] and in data set [3] was over 100 µM each time. Also, the IC50 at 24 h in data set [2] was over 100 µM; in data set [3], 62.7 ± 0.7 µM. Also, in data set [6], the inhibition at 10 µM was determined as 8%.
Take `O=C(NCC1CCN(Cc2ccccc2Cl)CC1)c1ccc2c(c1)Nc1ccccc1S2` [Compound 11b, N-((1-(2-Chlorobenzyl)piperidin-4-yl)methyl)-10H-phenothiazine-2-carboxamide]: the “hAChE I% at 10 µM” value in data set [1] is on record as 52% ± 1 ^b. The IC50 at 1 h in data set [2] and in data set [3] was over 100 µM each time. In addition, the half-maximal inhibitory concentration (IC50) at 24 h was determined as 21.2 ± 1 µM in data set [2] and 27.7 ± 0.4 µM in data set [3]. For the same compound, the values for the IC50 in data set [4] and in data set [5] were 55.3 ± 1.1 µM and 1.98 ± 0.12 µM, respectively. Besides, in data set [6], the inhibition at 10 µM is 20%.
`Cc1ccccc1CN1CCC(CNC(=O)c2ccc3c(c2)Nc2ccccc2S3)CC1` [Compound 11c, N-((1-(2-Methylbenzyl)piperidin-4-yl)methyl)-10H-phenothiazine-2-carboxamide]: the “hAChE I% at 10 µM” value in data set [1] is listed as 44% ± 2 ^b. In addition, the 50% inhibitory concentration (IC50) at 1 h in data set [2] and in data set [3] was over 100 µM each time. For the same compound, the IC50 at 24 h in data set [2] was found to be 15.2 ± 1.2 µM; in data set [3], 35.2 ± 1.1 µM. Moreover, the results for the 50% inhibitory concentration (IC50) in data set [4] and in data set [5] were 17.6 ± 0.5 µM and 1.47 ± 0.03 µM, respectively. Besides, the inhibition at 10 µM in data set [6] stood at 47%.
For the compound `O=C(NCC1CCN(Cc2ccccc2F)CC1)c1ccc2c(c1)Nc1ccccc1S2` [Compound 11d, N-((1-(2-Fluorobenzyl)piperidin-4-yl)methyl)-10H-phenothiazine-2-carboxamide], the IC50 in data set [1] worked out at 1.75 ± 0.11 µM; in data set [4], 1.82 ± 0.6 µM; in data set [5], 1.2 ± 0.01 µM. Further, the concentration for half-maximal inhibition (IC50) at 1 h in data set [2] and in data set [3] was over 100 µM in each case. Further, the 50% inhibitory concentration (IC50) at 24 h was found to be 9.33 ± 0.86 µM in data set [2] and 41 ± 0.2 µM in data set [3]. Also, the inhibition at 10 µM in data set [6] was 43%.
Turning to `COc1cccc(CN2CCC(CNC(=O)c3ccc4c(c3)Nc3ccccc3S4)CC2)c1` [Compound 11e, N-((1-(3-Methoxybenzyl)piperidin-4-yl)methyl)-10H-phenothiazine-2-carboxamide], in data set [1], the “hAChE I% at 10 µM” value is recorded as 22% ± 4 ^b. Besides, the half-maximal inhibitory concentration (IC50) at 1 h in data set [2] and in data set [3] was over 100 µM in each case. The values for the IC50 at 24 h in data set [2] and in data set [3] were 29 ± 1.1 µM and 14.9 ± 0.61 µM, respectively. The concentration for half-maximal inhibition (IC50) in data set [4] was determined as 3.21 ± 0.5 µM. The “hBChE I% at 10 µM” value in data set [5] (inhibition at 10 µM) is 47% ± 1 ^b. For the same compound, the inhibition at 10 µM in data set [6] came to 24%.
For `O=C(NCCN1CCN(Cc2ccccc2)CC1)c1ccc2c(c1)Nc1ccccc1S2` [Compound 12a, N-(2-(4-Benzylpiperazin-1-yl)ethyl)-10H-phenothiazine-2-carboxamide], the half-maximal inhibitory concentration (IC50) in data set [1] was 0.943 ± 0.046 µM; in data set [4] it was 1.13 ± 0.41 µM; in data set [5] it was 2.02 ± 0.03 µM. Moreover, the IC50 at 1 h in data set [2] and in data set [3] was over 100 µM in each case. The IC50 at 24 h was over 100 µM in data set [2] and 28.8 ± 0.42 µM in data set [3]. For the same compound, in data set [6], the inhibition at 10 µM worked out at 43%.
As to `O=C(NCCN1CCN(Cc2ccccc2Cl)CC1)c1ccc2c(c1)Nc1ccccc1S2` [Compound 12b, N-(2-(4-(2-Chlorobenzyl)piperazin-1-yl)ethyl)-10H-phenothiazine-2-carboxamide], the 50% inhibitory concentration (IC50) was 1.85 ± 0.15 µM in data set [1] and 18.7 ± 0.2 µM in data set [4]. Moreover, the IC50 at 1 h in data set [2] and in data set [3] was over 100 µM in each case. Moreover, the IC50 at 24 h in data set [2] is 31.8 ± 2 µM; in data set [3], over 100 µM. Besides, the inhibition at 10 µM in data set [6] is 27%.
With `Cc1ccccc1CN1CCN(CCNC(=O)c2ccc3c(c2)Nc2ccccc2S3)CC1` [Compound 12c, N-(2-(4-(2-Methylbenzyl)piperazin-1-yl)ethyl)-10H-phenothiazine-2-carboxamide], the “hAChE I% at 10 µM” value in data set [1] is on record as 56% ± 3 ^b. The IC50 at 1 h in data set [2] and in data set [3] was over 100 µM in each case. In addition, the IC50 at 24 h in data set [2] and in data set [3] was over 100 µM throughout. Moreover, the values for the IC50 in data set [4] and in data set [5] were 4.21 ± 0.81 µM and 2.5 ± 0.06 µM, respectively.
`O=C(NCCN1CCN(Cc2ccccc2F)CC1)c1ccc2c(c1)Nc1ccccc1S2` [Compound 12d, N-(2-(4-(2-Fluorobenzyl)piperazin-1-yl)ethyl)-10H-phenothiazine-2-carboxamide]: the half-maximal inhibitory concentration (IC50) in data set [1] came to 0.599 ± 0.112 µM; in data set [4], 14.6 ± 0.5 µM; in data set [5], 4.33 ± 0.19 µM. Further, in data set [7], the “MTT cytotoxicity IC50 ± SEM SHSY-5Y 24 h” value is listed as “no cytotoxic effects”. Moreover, the IC50 at 1 h in data set [2] and in data set [3] was over 100 µM in each case. For the same compound, the IC50 at 24 h in data set [2] is over 100 µM; in data set [3], 42.9 ± 1.81 µM. The inhibition at 10 µM in data set [6] is 60%.
Turning to `CC(=O)N1c2ccccc2Sc2ccc(C(=O)NCCN3CCN(Cc4ccccc4Cl)CC3)cc21` [Compound 13, 10-Acetyl-N-(2-(4-(2-chlorobenzyl)piperazin-1-yl)ethyl)-10H-phenothiazine-2-carboxamide], the “hAChE I% at 10 µM” value in data set [1] is 48% ± 5 ^b. In data set [2], the IC50 at 1 h is over 100 µM and the 50% inhibitory concentration (IC50) at 24 h turned out to be 55.3 ± 1.22 µM. Also, in data set [3], the IC50 at 1 h is over 100 µM and the IC50 at 24 h is over 100 µM. The concentration for half-maximal inhibition (IC50) in data set [4] was 0.63 ± 0.1 µM. The “Aβ1-40 Aggregation (I% at 10 µM)” value in data set [6] is “lack of activity”.
